The first test addresses PHGDH (Homo sapiens (Human), UniProt O43175). Briefly: 3-Phosphoglycerate Dehydrogenase (PHGDH) Fluorescence Intensity Assay, run at two NAD/3-PG ratios: PHGDH_HIGH_NAD/3-PG (250 μM NAD/500 μM 3-PG) and PHGDH_500_NAD/3-PG (500 μM NAD/500 μM 3-PG). It is filed as biochemical. The conditions noted are these: 250 μM NAD/500 μM 3-PG; read-out: IC50 (PHGDH_HIGH_NAD/3-PG).
Sequence of PHGDH (O43175 2-533 limits assumed): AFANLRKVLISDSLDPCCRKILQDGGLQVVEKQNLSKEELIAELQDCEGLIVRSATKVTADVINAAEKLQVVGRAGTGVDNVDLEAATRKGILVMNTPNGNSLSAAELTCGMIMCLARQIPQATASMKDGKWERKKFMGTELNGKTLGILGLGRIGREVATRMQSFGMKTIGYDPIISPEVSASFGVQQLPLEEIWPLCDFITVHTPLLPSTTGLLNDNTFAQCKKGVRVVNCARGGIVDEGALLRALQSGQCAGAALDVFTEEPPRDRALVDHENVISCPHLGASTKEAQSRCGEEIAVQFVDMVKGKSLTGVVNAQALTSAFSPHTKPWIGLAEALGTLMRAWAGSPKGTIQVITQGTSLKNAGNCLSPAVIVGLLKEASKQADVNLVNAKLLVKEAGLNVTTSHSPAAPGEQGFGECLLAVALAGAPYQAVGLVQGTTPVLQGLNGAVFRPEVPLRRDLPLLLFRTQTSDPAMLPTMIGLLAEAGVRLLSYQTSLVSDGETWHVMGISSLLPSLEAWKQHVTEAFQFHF
On to `COC(=O)C1(S(=O)(=O)c2ccc([C@@H](C)NC(=O)c3cc(-c4ccc(F)cc4)nn3C)cc2)CCCC1` [Example 06-003, methyl 1-{4-[(1R)-1-{[3-(4-fluorophenyl)-1-methyl-1H-pyrazol-5-yl]formamido}ethyl]benzenesulfonyl}cyclopentane-1-carboxylate], for which the IC50 was 11.7 µM.
Same read-out and setting: the value for `CC(C)OC(=O)C(C)S(=O)(=O)c1ccc([C@@H](C)NC(=O)c2cc(-c3ccccc3)nn2C)cc1` (stereo partly drawn) [Example 06-004, propan-2-yl 2-{4-[(1R)-1-[(1-methyl-3-phenyl-1H-pyrazol-5-yl)formamido]ethyl]benzenesulfonyl}propanoate] was 78.2 µM; that for `CC(C)OC(=O)C(C)(C)S(=O)(=O)c1ccc([C@@H](C)NC(=O)c2cc(-c3ccccc3)nn2C)cc1` [Example 06-005, propan-2-yl 2-methyl-2-{4-[(1R)-1-[(1-methyl-3-phenyl-1H-pyrazol-5-yl)formamido]ethyl]benzenesulfonyl}propanoate] was 15.9 µM; that for `CC(C)OC(=O)C(C)(C)S(=O)(=O)c1ccc([C@@H](CO)NC(=O)c2cc(-c3ccc(F)cc3)nn2C)cc1` [Example 06-006, propan-2-yl 2-{4-[(1S)-1-{[3-(4-fluorophenyl)-1-methyl-1H-pyrazol-5-yl]formamido}-2-hydroxyethyl]benzenesulfonyl}-2-methylpropanoate] was 14.5 µM.
The same measure, in the same setting: the value for `CC(C)OC(=O)C(C)S(=O)(=O)c1ccc([C@@H](CO)NC(=O)c2cc(-c3ccc(F)cc3)nn2C)cc1` (stereo partly drawn) [Example 06-007, propan-2-yl 2-{4-[(1S)-1-{[3-(4-fluorophenyl)-1-methyl-1H-pyrazol-5-yl]formamido}-2-hydroxyethyl]benzenesulfonyl}propanoate] was 29.6 µM; that for `COC(=O)C(C)(C)S(=O)(=O)c1ccc([C@@H](CO)NC(=O)c2cc(-c3ccc(F)cc3)nn2C)cc1` [Example 06-008, methyl 2-{4-[(1S)-1-{[3-(4-fluorophenyl)-1-methyl-1H-pyrazol-5-yl]formamido}-2-hydroxyethyl]benzenesulfonyl}-2-methylpropanoate] was 8.34 µM; that for `CCC(CC)(C(=O)O)S(=O)(=O)c1ccc([C@@H](C)NC(=O)c2cc3c(Cl)cc(C)cc3n2C)cc1` [Example 07-001, 2-{4-[(1R)-1-[(4-chloro-1,6-dimethyl-1H-indol-2-yl)formamido]ethyl]benzenesulfonyl}-2-ethylbutanoic acid] was 0.01 µM.
Still for that read-out and setting: as for `Cc1cc(Cl)c2cc(C(=O)N[C@H](C)c3ccc(S(=O)(=O)C(C)C(=O)O)cc3)n(C)c2c1` (stereo partly drawn) [Example 07-003, 2-{4-[(1R)-1-[(4-chloro-1,6-dimethyl-1H-indol-2-yl)formamido]ethyl]benzenesulfonyl}propanoic acid], the figure is 0.008 µM; as for `Cc1cc(Cl)c2cc(C(=O)N[C@H](C)c3ccc(S(=O)(=O)C4(C(=O)O)CCCC4)cc3)n(C)c2c1` [Example 07-004, 1-{4-[(1R)-1-[(4-chloro-1,6-dimethyl-1H-indol-2-yl)formamido]ethyl]benzenesulfonyl}cyclopentane-1-carboxylic acid], 0.006 µM.
Regarding `C[C@@H](NC(=O)c1cc2cc(Cl)ccc2n1C)c1ccc(S(=O)(=O)[C@@H](C)C(=O)O)cc1` [Example 07-006, (2S)-2-{4-[(1R)-1-[(5-chloro-1-methyl-1H-indol-2-yl)formamido]ethyl]benzenesulfonyl}propanoic acid], the IC50 came to 0.238 µM.
Same read-out and setting: the value for `C[C@@H](NC(=O)c1cc2cc(Cl)ccc2n1C)c1ccc(S(=O)(=O)C(C)(C)C(=O)O)cc1` [Example 07-007, 2-{4-[(1R)-1-[(5-chloro-1-methyl-1H-indol-2-yl)formamido]ethyl]benzenesulfonyl}-2-methylpropanoic acid] was 0.209 µM.
As for `C[C@H](C(=O)O)S(=O)(=O)c1ccc([C@@H](C)NC(=O)c2cc3cc(Cl)ccc3n2C)cc1` [Example 07-008, (2R)-2-{4-[(1R)-1-[(5-chloro-1-methyl-1H-indol-2-yl)formamido]ethyl]benzenesulfonyl}propanoic acid], the IC50 was determined as 0.139 µM.
On the same count and under the same terms, the value for `CC(C(=O)O)S(=O)(=O)c1ccc([C@@H](C)NC(=O)c2cc3cc(Cl)ccc3n2C)cc1` (stereo partly drawn) [Example 07-009, 2-{4-[(1R)-1-[(5-chloro-1-methyl-1H-indol-2-yl)formamido]ethyl]benzenesulfonyl}propanoic acid] was 0.19 µM; that for `COCCC(C(=O)O)S(=O)(=O)c1ccc([C@@H](C)NC(=O)c2cc3c(Cl)cc(C)cc3n2C)cc1` (stereo partly drawn) [Example 07-010, 2-{4-[(1R)-1-[(4-chloro-1,6-dimethyl-1H-indol-2-yl)formamido]ethyl]benzenesulfonyl}-4-methoxybutanoic acid] was 0.021 µM.
Same read-out and setting: the value for `CCC(C(=O)O)S(=O)(=O)c1ccc([C@@H](C)NC(=O)c2cc3c(Cl)cc(C)cc3n2C)cc1` (stereo partly drawn) [Example 07-011, 2-{4-[(1R)-1-[(4-chloro-1,6-dimethyl-1H-indol-2-yl)formamido]ethyl]benzenesulfonyl}butanoic acid] was 0.011 µM.
The same measure, in the same setting: the value for `Cc1cc(Cl)c2cc(C(=O)N[C@H](C)c3ccc(S(=O)(=O)C4(C(=O)O)CC4)cc3)n(C)c2c1` [Example 07-013, 1-{4-[(1R)-1-[(4-chloro-1,6-dimethyl-1H-indol-2-yl)formamido]ethyl]benzenesulfonyl}cyclopropane-1-carboxylic acid] was 0.01 µM; that for `Cc1cc2c(cc(C(=O)N[C@H](CO)c3ccc(S(=O)(=O)C(C)(C)C(=O)O)cc3)n2C)c(Cl)c1Cl` [Example 07-014, 2-{4-[(1S)-1-[(4,5-dichloro-1,6-dimethyl-1H-indol-2-yl)formamido]-2-hydroxyethyl]benzenesulfonyl}-2-methylpropanoic acid] was 0.004 µM.
Take `Cc1cc2c(cc(C(=O)N[C@H](C)c3ccc(S(=O)(=O)C(C)(C)C(=O)O)cc3)n2C)c(Cl)c1Cl` [Example 07-015, 2-{4-[(1R)-1-[(4,5-dichloro-1,6-dimethyl-1H-indol-2-yl)formamido]ethyl]benzenesulfonyl}-2-methylpropanoic acid]: the IC50 amounted to 0.005 µM.
The same measure, in the same setting: the value for `C[C@@H](NC(=O)c1cc(-c2ccc(F)cc2)nn1C)c1ccc(S(=O)(=O)C(C)(C)C(=O)O)cc1` [Example 08-001, 2-{4-[(1R)-1-{[3-(4-fluorophenyl)-1-methyl-1H-pyrazol-5-yl]formamido}ethyl]benzenesulfonyl}-2-methylpropanoic acid] was 0.161 µM; that for `C[C@@H](NC(=O)c1cc(-c2ccc(F)cc2)nn1C)c1ccc(S(=O)(=O)C2(C(=O)O)CCCC2)cc1` [Example 08-002, 1-{4-[(1R)-1-{[3-(4-fluorophenyl)-1-methyl-1H-pyrazol-5-yl]formamido}ethyl]benzenesulfonyl}cyclopentane-1-carboxylic acid] was 0.074 µM; that for `C[C@@H](NC(=O)c1cc(-c2ccc(F)cc2)nn1C)c1ccc(S(=O)(=O)C2(C(=O)O)CCOCC2)cc1` [Example 08-003, 4-{4-[(1R)-1-{[3-(4-fluorophenyl)-1-methyl-1H-pyrazol-5-yl]formamido}ethyl]benzenesulfonyl}oxane-4-carboxylic acid] was 0.139 µM.
`COCCOC(=O)CS(=O)(=O)c1ccc([C@@H](C)NC(=O)c2cc3cc(C(F)(F)F)ccc3n2C)cc1` [Example 09-008, 2-methoxyethyl 2-{4-[(1R)-1-{[1-methyl-5-(trifluoromethyl)-1H-indol-2-yl]formamido}ethyl]benzenesulfonyl}acetate]: the IC50 worked out at 3.46 µM.
On to `CCCCOC(=O)CS(=O)(=O)c1ccc([C@@H](C)NC(=O)c2cc3c(Cl)cc(C)cc3n2C)cc1` [Example 09-009, butyl 2-{4-[(1R)-1-[(4-chloro-1,6-dimethyl-1H-indol-2-yl)formamido]ethyl]benzenesulfonyl}acetate], for which the IC50 is 3.73 µM.
Regarding `Cc1cc(Cl)c2cc(C(=O)N[C@H](C)c3ccc(S(=O)(=O)CC(=O)OCc4ccncc4)cc3)n(C)c2c1` [Example 09-010, pyridin-4-ylmethyl 2-{4-[(1R)-1-[(4-chloro-1,6-dimethyl-1H-indol-2-yl)formamido]ethyl]benzenesulfonyl}acetate], the IC50 was found to be 0.175 µM.
Regarding `Cc1cc(Cl)c2cc(C(=O)N[C@H](C)c3ccc(S(=O)(=O)CC(=O)OCC(COC(=O)C(C)(C)C)COC(=O)C(C)(C)C)cc3)n(C)c2c1` [Example 09-015, 2-{[(2-{4-[(1R)-1-[(4-chloro-1,6-dimethyl-1H-indol-2-yl)formamido]ethyl]benzenesulfonyl}acetyl)oxy]methyl}-3-[(2,2-dimethylpropanoyl)oxy]propyl 2,2-dimethylpropanoate], the IC50 came to 9.19 µM.
The same measure, in the same setting: the value for `Cc1cc(Cl)c2cc(C(=O)N[C@H](C)c3ccc(S(=O)(=O)CC(=O)OCC4CC4)cc3)n(C)c2c1` [Example 09-016, cyclopropylmethyl 2-{4-[(1R)-1-[(4-chloro-1,6-dimethyl-1H-indol-2-yl)formamido]ethyl]benzenesulfonyl}acetate] was 2.1 µM.
`Cc1cc(Cl)c2cc(C(=O)N[C@H](C)c3ccc(S(=O)(=O)CC(=O)OCC4COC4)cc3)n(C)c2c1` [Example 09-017, oxetan-3-ylmethyl 2-{4-[(1R)-1-[(4-chloro-1,6-dimethyl-1H-indol-2-yl)formamido]ethyl]benzenesulfonyl}acetate]: the IC50 stood at 0.177 µM.

The test is the same for the next values; noted with them: 500 μM NAD/500 μM 3-PG; read-out: IC50 (PHGDH_500_NAD/3-PG).
As to `Cc1cc2c(cc(C(=O)N[C@H](C)c3ccc(S(=O)(=O)C4CCCOC4=O)cc3)n2C)c(Cl)c1Cl` (stereo partly drawn) [Example 05-025, 4,5-dichloro-1,6-dimethyl-N-[(1R)-1-{4-[(2-oxooxan-3-yl)sulfonyl]phenyl}ethyl]-1H-indole-2-carboxamide], the IC50 came to 0.02 µM.
`CCC(CC)(C(=O)O)S(=O)(=O)c1ccc([C@@H](C)NC(=O)c2cc3c(Cl)cc(C)cc3n2C)cc1` [Example 07-001, 2-{4-[(1R)-1-[(4-chloro-1,6-dimethyl-1H-indol-2-yl)formamido]ethyl]benzenesulfonyl}-2-ethylbutanoic acid]: the IC50 was found to be 0.014 µM.
For the molecule `Cc1cc(Cl)c2cc(C(=O)N[C@H](C)c3ccc(S(=O)(=O)C4(C(=O)O)CC4)cc3)n(C)c2c1` [Example 07-013, 1-{4-[(1R)-1-[(4-chloro-1,6-dimethyl-1H-indol-2-yl)formamido]ethyl]benzenesulfonyl}cyclopropane-1-carboxylic acid], the IC50 turned out to be 0.015 µM.
On the same count and under the same terms, the value for `Cc1cc2c(cc(C(=O)N[C@H](CO)c3ccc(S(=O)(=O)C(C)(C)C(=O)O)cc3)n2C)c(Cl)c1Cl` [Example 07-014, 2-{4-[(1S)-1-[(4,5-dichloro-1,6-dimethyl-1H-indol-2-yl)formamido]-2-hydroxyethyl]benzenesulfonyl}-2-methylpropanoic acid] was 0.006 µM; that for `Cc1cc2c(cc(C(=O)N[C@H](C)c3ccc(S(=O)(=O)C(C)(C)C(=O)O)cc3)n2C)c(Cl)c1Cl` [Example 07-015, 2-{4-[(1R)-1-[(4,5-dichloro-1,6-dimethyl-1H-indol-2-yl)formamido]ethyl]benzenesulfonyl}-2-methylpropanoic acid] was 0.009 µM.
Still for that read-out and setting: as for `CC(=O)N1CCC(C(=O)O)(S(=O)(=O)c2ccc([C@@H](C)NC(=O)c3cc4c(Cl)c(Cl)c(C)cc4n3C)cc2)CC1` [Example 07-016, 1-acetyl-4-{4-[(1R)-1-[(4,5-dichloro-1,6-dimethyl-1H-indol-2-yl)formamido]ethyl]benzenesulfonyl}piperidine-4-carboxylic acid], the figure is 0.021 µM; as for `C[C@@H](NC(=O)c1cc(-c2ccc(F)cc2)nn1C)c1ccc(S(=O)(=O)C2(C(=O)O)CCCC2)cc1` [Example 08-002, 1-{4-[(1R)-1-{[3-(4-fluorophenyl)-1-methyl-1H-pyrazol-5-yl]formamido}ethyl]benzenesulfonyl}cyclopentane-1-carboxylic acid], 0.095 µM.

The values above are taken from patent publication US11304929B2, “Tosylacetate based compounds and derivatives thereof as PHGDH inhibitors” (priority 2017, dated 2022).
